# Laboratory results reported in patent US5710130A, “Antithrombotic agents” (Eli Lilly and Company, priority 1995, dated 1998).
# Counter-ions that a name gives are not always drawn.
# Tested on: human plasma
# Assay: Human plasma anticoagulation, thrombin time (TT)
# Format: biochemical
# Conditions: concentration required to double thrombin time, linear extrapolation
# Method: (§1) Dog plasma and rat plasma is obtained from conscious mixed-breed hounds (either sex, Hazelton-LRE, Kalamazoo, Mich., U.S.A.) or from anesthetized male Sprague-Dawley rats (Harlan Sprague-Dawley, Inc., Indianapolis, Ind., U.S.A.) by venipuncture into 3.8 percent citrate. Fibrinogen is prepared from in-date ACD human blood as the fraction I-2 according to previous procedures and specifications. […] Human fibrinogen is also purchased as 98 percent pure/plasmin free from American Diagnostica, Greenwich, Conn. Coagulation reagents ACTIN, Thromboplastin, and Human plasma are from Baxter Healthcare Corp., Dade Division, Miami, Fla. Bovine thrombin from Parke-Davis ([…], Mich.) is used for coagulation assays in plasma.
# (§2) Coagulation assay procedures are as previously described. […] A CoAScreener coagulation instrument (American LABor, Inc.) is used for all coagulation assay measurements. The prothrombin time (PT) is measured by adding 0.05 mL saline and 0.05 mL Thromboplastin-C reagent to 0.05 mL test plasma. The activated partial thromboplastin time (APTT) is measured by incubation of 0.05 mL test plasma with 0.05 mL Actin reagent for 120 seconds followed by 0.05 mL CaCl2 (0.02M). The thrombin time (TT) is measured by adding 0.05 mL saline and 0.05 mL thrombin (10 NIH units/mL) to 0.05 mL test plasma. The compounds of Formula I are added to human or animal plasma over a wide range of concentrations to determine prolongation effects on the APTT, PT, and TT assays. Linear extrapolations are performed to estimate the concentrations required to double the clotting time for each assay.
row,Structure (SMILES),Human Plasma Anticoagulation 2x Clotting time TT
1,"CCS(=O)(=O)N[C@H](Cc1ccccc1)C(=O)N1CCC[C@H]1C(=O)NCCCCN=C(N)N.Cl [Example 1, EtSO2 -D-Phe-Pro-Agm.Hcl]",250 ng/mL
2,"N=C(N)NCCCCCCNC(=O)[C@@H]1CCCN1C(=O)[C@H](N)Cc1ccccc1 [Example 5, D-Phe-Pro-NH(CH2)6 NHC(NH)NH2.HCl]","30,000 ng/mL"
3,"N=C(N)NCCCCCNC(=O)[C@@H]1CCCN1C(=O)[C@H](N)Cc1ccccc1 [Example 6, D-Phe-Pro-NH(CH2)5 NHC(NH)NH2.HCl]",390 ng/mL
4,"N=C(N)NCCCNC(=O)[C@@H]1CCCN1C(=O)[C@H](N)Cc1ccccc1 [Example 7, D-Phe-Pro-NH(CH2)3 NHC(NH)NH2.HCl]",490 ng/mL
5,"N=C(N)NCc1ccc(CNC(=O)[C@@H]2CCCN2C(=O)[C@H](N)Cc2ccccc2)cc1 [Example 9, D-Phe-Pro-p-NHCH2 C6 H4 CH2 NHC(NH)NH2.2TFA]","> 91,000 ng/mL"
6,"NCc1ccc(CNC(=O)[C@@H]2CCCN2C(=O)[C@H](N)Cc2ccccc2)cc1 [Example 10, D-Phe-Pro-p-NHCH2 C6 H4 CH2 NH2.HCl]",420 ng/mL
7,"Nc1ccc(CNC(=O)[C@@H]2CCCN2C(=O)[C@H](N)Cc2ccccc2)cc1 [Example 13, D-Phe-Pro-p-NHCH2 C6 H4 NH2.HCl]",660 ng/mL
8,"CCS(=O)(=O)N[C@H](Cc1ccccc1)C(=O)N1CCC[C@H]1C(=O)NCCCc1ccc(C(=N)N)cc1 [Example 30, EtSO2 -D-Phe-Pro-p-NHCH2 CH2 CH2 -C6 H4 C(=NH)NH2.HCl]","1,000 ng/mL"
9,"N=C(N)Nc1ccc(CNC(=O)[C@@H]2CCCN2C(=O)[C@@H]2NCC[C@@H]3CCCC[C@@H]32)cc1 [Example 38, D-1-piq-pro-p-NHCH2 C6 H4 NHC(NH)NH2.2HCl]",540 ng/mL
10,"N=C(N)Nc1ccc(CCNC(=O)[C@@H]2CCCN2C(=O)[C@@H]2NCC[C@@H]3CCCC[C@@H]32)cc1 [Example 39, D-1-piq-Pro-p-NHCH2 CH2 C6 H4 NHC(NH)NH2.2HCl]","5,300 ng/mL"
11,"O=C(O)CN[C@H](CC1CCCCC1)C(=O)N1CCC[C@H]1C(=O)NCC1CCNCC1 [Example 53, HO2 CCH2 -D-Cha-Pro-4-NHCH2 -piperidine.HCl]","1,400 ng/mL"
12,"N=C(N)NCCCCNC(=O)[C@@H]1CCCN1C(=O)[C@@H]1NCC[C@H]2CCCC[C@H]21 [Example 61, N-[4-[(aminoiminomethyl)amino]butyl]-1-[[(4aR,8aR)-decahydro-1(R)-isoquinolinyl]carbonyl]-1-prolinamide trihydrochloride]",45 ng/mL
13,"Nc1ccc(CNC(=O)[C@@H]2CCCN2C(=O)[C@@H](CC2CCCCC2)NCC(=O)O)cc1 [Example 62, HO2 CCH2 -D-Cha-Pro-4-NHCH2 C6 H4 NH2.HCl]",54 ng/mL
14,"Nc1ccc(CCNC(=O)[C@@H]2CCCN2C(=O)[C@@H](CC2CCCCC2)NCC(=O)O)cc1 [Example 63, HO2 CCH2 -D-Cha-Pro-4-NHCH2 CH2 C6 H4 NH2.HCl]",680 ng/mL
15,"N=C(N)c1ccc(CNC(=O)[C@@H]2CCCN2C(=O)[C@@H](CC2CCCCC2)NCC(=O)O)s1 [Example 65, N-(carboxymethyl)-D-cyclohexylalanyl-N-[[5-(aminoiminomethyl)thiophen-2-yl]methyl]-L-prolinamide hydrochloride]",1 ng/mL
16,"CCC(CC)C(=O)N[C@@H](CCC(=O)O)C(=O)N1CCC[C@H]1C(=O)NCc1ccc(C(=N)N)cc1 [Example 90, (C2 H5)2 CHCO-Glu-Pro-p-NHCH2 C6 H4 C(NH)NH2.HCl]",330 ng/mL

# Tested on: human plasma
# Assay: Human plasma anticoagulation, activated partial thromboplastin time (APTT)
# Format: biochemical
# Conditions: concentration required to double APTT, linear extrapolation
# Method: as §1, §2
row,Structure (SMILES),Human Plasma Anticoagulation 2x Clotting time APTT
1,"CCS(=O)(=O)N[C@H](Cc1ccccc1)C(=O)N1CCC[C@H]1C(=O)NCCCc1ccc(C(=N)N)cc1 [Example 30, EtSO2 -D-Phe-Pro-p-NHCH2 CH2 CH2 -C6 H4 C(=NH)NH2.HCl]","14,000 ng/mL"
2,"N=C(N)Nc1ccc(CNC(=O)[C@@H]2CCCN2C(=O)[C@@H]2NCC[C@@H]3CCCC[C@@H]32)cc1 [Example 38, D-1-piq-pro-p-NHCH2 C6 H4 NHC(NH)NH2.2HCl]","6,100 ng/mL"
3,"N=C(N)c1ccc(CNC(=O)[C@@H]2CCCN2C(=O)[C@@H](CC2CCCCC2)NCC(=O)O)s1 [Example 65, N-(carboxymethyl)-D-cyclohexylalanyl-N-[[5-(aminoiminomethyl)thiophen-2-yl]methyl]-L-prolinamide hydrochloride]",48 ng/mL
